Common to all, as to experiment: Cell viability / proliferation assay (CellTiter Glo luminescence, 72 h)
What all share (format): cell-based

In data set [1] the test system is A2780 ovarian carcinoma cells. Here is the method: (§1) • Figure 1 represents the chemical structure of ingrilimine according to compound (Illa) formula. • Figure 2 represents the cytotoxic activity of ingrilimine. A2780 ovarian and HT29 colorectal carcinoma cells were grown in RPMI 1640 supplemented with 10% fetal calf serum (FCS) and 1% glutamine. U87-MG glioblastoma cells were grown in Dulbecco minimal essential medium containing 4.5 g/L glucose, 10% FCS and 1% glutamine at 37 °C in a humidified atmosphere containing 5% CO2. For IC50 determination, the cells were seeded in 96-well plates (3 × 10^3 cells/well) containing 90 µL of growth medium. After 24 h of culture, the cells were treated with ingrilimine at 10 different final concentrations. Cell viability was determined by luminescence after 72 h incubation. (a) Effect of ingrilimine on A2780 ovarian carcinoma cells. (b) Effect of ingrilimine on U87-MG glioblastoma cells. (c) Effect of ingrilimine on U87-MG glioblastoma cells • Figure 3a-3f represent the mitochondrial dysfunction provoked by ingrilimine. HCT116 cells were treated with ingrilimine in the range of […] for 24h and 48h. Sector Q normal cells that accumulated the JC-1 dye (fluorescence emission 590 nm). […] (a) Non-treated cells incubated with the carrier (DMSO) for 24 h. (b) HCT116 cells incubated with […] ingrilimine for 24 h. (c) HCT116 cells incubated with 250 nM ingrilimine for 24 h. (d) Non-treated cells incubated with the carrier (DMSO) for 48 h. (e) HCT116 cells incubated with […] ingrilimine for 48 h. (f) HCT116 cells incubated with 250 nM ingrilimine for 48. Changes in fluorescence emission were recorded by flow cytometry using the JC-1 mithocondrial membrane potential-dependent fluorescent dye. NT = non-treated cells; IngX = ingrilimine. • Figure 4a-4f represents phosphatidylserine exposure provoked by ingrilimine. A2780 cancer cells were incubated with ingrilimine in the range of 10-500 nM before staining with FITC-Annexin V and propidium iodide. Quadrants D1 and D2 with dead or necrotic cells, quadrant D3 with normal cells and quadrant D4 with apoptotic cells following phosphatidylserine exposure. (a) Non-treated A2780 cells incubated with the carrier (DMSO) for 24h. (b) A2780 cells incubated with 10 nM ingrilimine for 24 h. (c) A2780 cells incubated with 250 nM ingrilimine for 24 h. (d) Non-treated A2780 cells incubated with the carrier (DMSO) for 48 h. (e) A2780 cells incubated with 10 nM ingrilimine for 48 h. (f) A2780 cells incubated with 250 nM ingrilimine for 48. […] exposure in A2780 cell was quantified by flow cytometry using FITC-Annexin V. Dead or necrotic cells were detected using the vital dye propridium iodide. NT = non-treated cells; IngX = ingrilimine. • Figure 5 represents the antagonistic activity of ingrilimine (named "IngX" in the figure) and portimine (named "Port A" in the figure) against nicotinic acetylcholine receptors recorded by two-electrodes voltage clamp electrophysiology on Xenopus laevis oocytes. Clamped Xenopus laevis oocytes having incorporated the muscle (α1)2βγδ nAChR subtype from Torpedo marmorata (filled squares), or expressing the neuronal α3β2 nAChR subtype from rat (filled triangles), or expressing the human neuronal α7 nAChR subtype (filled circles) were exposed to portimine (100 nM - 1 mM) for 45 seconds. […] A Xenopus laevis oocyte expressing the human α7 nAChR subtype was exposed to 100 µM acetylcholine triggering the immediate opening of the receptor's channel (black bold line) followed by the very-fast closure of the channel ([…]) that became insensitive to acetylcholine during the rest of the 5 seconds exposure (desensitization). When a Xenopus laevis oocyte expressing the human α7 nAChR subtype was exposed first to 10 nM ingrilimine for 45 seconds and then to a mixture (Mix) containing 10 nM ingrilimine and 100 µM acetylcholine, the receptor's channel was closed denoting a strong antagonistic activity of the tested toxin against the α7 nAChR subtype (dotted line). […]

Data set [2] deals with HT29 colorectal carcinoma cells. The conditions noted are these: for IC50: 72 h incubation, mean ± SEM from three distinct experiments. As for the experimental part: as §1
The subject of data set [3] is U87-MG glioblastoma cells. The conditions noted are these: for IC50: 72 h incubation, mean ± SEM from three distinct experiments. Here is the method: as §1

Each structure is given as a SMILES string. Like-named read-outs stand apart in the source and are kept apart here.

Take `C=CC1=C[C@@H]2C[C@@H](O)[C@@H](O)/C(C)=C/C/C(C)=C/CCC3=NCCC[C@]32CC1` [Ingrilimine, ingrilimine]: the IC50 (as a rule, the concentration needed to halve the response being measured) in data set [1] (Homo sapiens, A2780, 72 h incubation, mean ± SEM from three distinct experiments, read-out: IC50 ± SEM (nM) A2780) is 10.6 ± 0.2 nM; in data set [1] (Homo sapiens, A2780, HT29 and U87-MG together, read-out: IC50 values, range over the three cancer cell lines tested), 10 to 45 nM; in data set [2] (Homo sapiens, HT-29) it was 34.3 ± 1.1 nM; in data set [3] (Homo sapiens, U-87 MG), 44.2 ± 0.3 nM. The “times less potent than portimine-A to kill the A2780 ovarian cancer cells” value in data set [1] (ratio of IC50) came to 13 times. The “cytotoxic activity, times less potent compared to portimine-A” value in data set [2] (HT29, ratio of IC50) came out at 5 times; in data set [3] (U87-MG, ratio of IC50), 5 times.

As to `C=CC1=C[C@@H]2[C@@H]3O[C@]4(CC[C@H](O4)[C@@H](C)C[C@@H](O)C3=O)C[C@H](O)C3=NCC[C@@]32CC1` [Portimine-A], the IC50 stood at 0.77 ± 0.1 nM in data set [1] (72 h incubation, mean ± SEM from three distinct experiments, read-out: IC50 ± SEM (nM) A2780); 6.4 ± 0.1 nM in data set [2]; 8.1 ± 7.8 nM in data set [3].

Source of the values: patent EP4624457A1, “I[…] DERIVATIVES, I[…] NEURODEGENERATIVE DISEASES” (Centre National de la Recherche Scientifique, priority 2024, dated 2025).
